Experiments:
Format in all cases: biochemical
[1] = target: T1, CDK4 (Homo sapiens, UniProt P11802); assay: mobility shift kinase assay ([…] CDK4, […] ATP, FAM-P8)
[2] = target: Pim1 (Homo sapiens, UniProt P11309); assay: mobility shift kinase assay ([…] Pim1, […] ATP, FAM-P20)
[3] = target: T1, CDK4; assay: mobility shift kinase assay, % inhibition at […]
[4] = target: T1, CDK4; assay: mobility shift kinase assay, % inhibition at […]; remark: listed apart in the source

T1 sequence (P11802 2-303): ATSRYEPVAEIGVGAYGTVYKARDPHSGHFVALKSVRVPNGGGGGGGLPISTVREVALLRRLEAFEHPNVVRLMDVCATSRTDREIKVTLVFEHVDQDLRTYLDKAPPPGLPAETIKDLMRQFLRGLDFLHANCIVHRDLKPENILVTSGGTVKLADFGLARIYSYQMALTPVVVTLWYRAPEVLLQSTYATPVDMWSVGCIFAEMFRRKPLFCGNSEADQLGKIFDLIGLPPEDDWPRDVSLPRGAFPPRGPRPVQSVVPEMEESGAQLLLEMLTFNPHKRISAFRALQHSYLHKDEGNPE
T1 sequence (P30281 whole entry partner): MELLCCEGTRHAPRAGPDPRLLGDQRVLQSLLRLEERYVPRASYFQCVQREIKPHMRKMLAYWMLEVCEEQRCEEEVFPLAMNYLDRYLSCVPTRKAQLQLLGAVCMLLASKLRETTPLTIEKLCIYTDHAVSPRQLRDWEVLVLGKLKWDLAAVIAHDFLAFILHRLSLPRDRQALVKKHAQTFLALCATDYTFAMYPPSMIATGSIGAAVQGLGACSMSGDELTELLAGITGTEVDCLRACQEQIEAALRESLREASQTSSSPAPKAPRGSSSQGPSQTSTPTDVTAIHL
Pim1, sequence (P11309 whole entry): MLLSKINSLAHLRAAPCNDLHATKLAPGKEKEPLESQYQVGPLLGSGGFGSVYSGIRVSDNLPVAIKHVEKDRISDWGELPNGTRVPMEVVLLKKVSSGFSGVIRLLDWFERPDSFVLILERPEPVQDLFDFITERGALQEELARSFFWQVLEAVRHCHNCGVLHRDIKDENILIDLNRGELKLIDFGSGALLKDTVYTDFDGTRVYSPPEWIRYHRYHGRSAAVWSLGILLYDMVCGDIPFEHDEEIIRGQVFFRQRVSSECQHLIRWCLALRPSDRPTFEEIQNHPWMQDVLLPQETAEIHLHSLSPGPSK

For Oc1ccc(-c2ccc3nnc(-c4ccc5cccc(OC6CCNCC6)c5n4)n3c2)cc1 [MJ-1055], the IC50 [1] was 25.3 µM and the IC50 [2] was 0.0096 µM.
O=C1N=c2ccccc2=C1c1s/c(=N\N=C2\C(=O)Nc3ccccc32)n(-c2ccc(O)cc2)c1O [AF-399/37285031] was tested, and the “% inhibition at 10 μM” value [3] was 57.8 ± 5.0.
CC(C)n1cc(C(N)=O)c2cnc(Nc3ccc(N4CCNCC4)cc3)nc21 [MJ-115] was tested, and the “Inhibition for CDK4 at 100 μM (%)” value [4] was 90.74 ± 1.28.

Reference: article PMC7278228, “Chemical space exploration based on recurrent neural networks: applications in discovering kinase inhibitors” (Journal of Cheminformatics, 2020)
